Results: ChEMBL document CHEMBL3885861, “Open TG-GATES”

Species on record: Rattus norvegicus
Assay: Open TG-GATES - Regimen: Daily Repeat
Type: toxicity, organism-based, Sprague-Dawley
Design: regimen Daily Repeat, gender Male, age 6 weeks
Conditions: in vivo, po, route gavage; for APTT / Bas / Eos / Fbg / Hb / Ht / Lym / MCH / MCHC / MCV / Mono / Neu / PT / Plat / RBC / Ret / WBC: tissue Blood; for KIDNEY_L / KIDNEY_R / KIDNEY_TOTAL: tissue Kidney; for LIVER: tissue Liver; for A/G / ALP / ALT / AST / BUN / CRE / Ca / Cl / DBIL / GLC / IP / K / LDH / Na / PL / RALB / TBIL / TC / TG / TP / gamma-GTP: tissue Plasma
[1] = 0 mg/kg, 72 h, dose level Control, time 3 day
[2] = 0 mg/kg, […], dose level Control, time 7 day
[3] = 0 mg/kg, […], dose level Control, time 14 day
[4] = 0 mg/kg, […], dose level Control, time 28 day
[5] = 40 mg/kg, 72 h, dose level Low, time 3 day
[6] = 40 mg/kg, […], dose level Low, time 7 day
[7] = 40 mg/kg, […], dose level Low, time 14 day
[8] = 40 mg/kg, […], dose level Low, time 28 day

## COc1ccc(Cc2nccc3cc(OC)c(OC)cc23)cc1OC [PAPAVERINE]
[1]
  TERMINAL_BW: 240.5 g
  APTT: 21.1 s
  Bas: 0%
  Eos: 1%
  Fbg: 326.8 mg/dL
  Hb: 13.5 g/dL
  Ht: 40.7%
  Lym: 81.2%
  MCH: 21 pg
  MCHC: 33.4%
  MCV: 63 fL
  Mono: 2.2%
  Neu: 14.4%
  PT: 15.8 s
  Plat: 114.4 x10_4/uL
  RBC: 645.6 x10_4/ul
  Ret: 6.6%
  WBC: 105.4 x10_2/uL
  KIDNEY_L: 1 g
  KIDNEY_R: 1 g
  KIDNEY_TOTAL: 2 g
  LIVER: 11.4 g
  A/G: 1.2
  ALP: 1572.8 IU/L
  ALT: 41.4 IU/L
  AST: 70.2 IU/L
  BUN: 16 mg/dL
  CRE: 0.2 mg/dL
  Ca: 11 mg/dL
  Cl: 108.2 meq/L
  DBIL: 0 mg/dL
  GLC: 202.2 mg/dL
  IP: 7.2 mg/dL
  K: 4.2 meq/L
  LDH: 171.6 IU/L
  Na: 142.6 meq/L
  PL: 136.4 mg/dL
  RALB: 3 g/dL
  TBIL: 0.004 mg/dL
  TC: 72 mg/dL
  TG: 116 mg/dL
  TP: 5.5 g/dL
  gamma-GTP: 1.2 IU/L
[2]
  TERMINAL_BW: 267.4 g
  APTT: 23.2 s
  Bas: 0%
  Eos: 0.8%
  Fbg: 299 mg/dL
  Hb: 13.7 g/dL
  Ht: 40.3%
  Lym: 80%
  MCH: 21 pg
  MCHC: 34.1%
  MCV: 61.6 fL
  Mono: 2.8%
  Neu: 14.8%
  PT: 15.7 s
  Plat: 111.7 x10_4/uL
  RBC: 654 x10_4/ul
  Ret: 5.6%
  WBC: 125.6 x10_2/uL
  KIDNEY_L: 1.1 g
  KIDNEY_R: 1.1 g
  KIDNEY_TOTAL: 2.2 g
  LIVER: 12.1 g
  A/G: 1.2
  ALP: 1358 IU/L
  ALT: 47 IU/L
  AST: 82.2 IU/L
  BUN: 19.4 mg/dL
  CRE: 0.2 mg/dL
  Ca: 10.3 mg/dL
  Cl: 107.2 meq/L
  DBIL: 0 mg/dL
  GLC: 203.2 mg/dL
  IP: 6.7 mg/dL
  K: 4.4 meq/L
  LDH: 248.2 IU/L
  Na: 140.4 meq/L
  PL: 148.8 mg/dL
  RALB: 3 g/dL
  TBIL: 0 mg/dL
  TC: 75 mg/dL
  TG: 101.6 mg/dL
  TP: 5.5 g/dL
  gamma-GTP: 2 IU/L
[3]
  TERMINAL_BW: 326.9 g
  APTT: 22.8 s
  Bas: 0%
  Eos: 1%
  Fbg: 316.8 mg/dL
  Hb: 14.6 g/dL
  Ht: 42.7%
  Lym: 82%
  MCH: 20.7 pg
  MCHC: 34.1%
  MCV: 60.5 fL
  Mono: 2.2%
  Neu: 13.2%
  PT: 15.5 s
  Plat: 107 x10_4/uL
  RBC: 707 x10_4/ul
  Ret: 5%
  WBC: 120 x10_2/uL
  KIDNEY_L: 1.2 g
  KIDNEY_R: 1.3 g
  KIDNEY_TOTAL: 2.5 g
  LIVER: 14.2 g
  A/G: 1.1
  ALP: 1381.4 IU/L
  ALT: 42.2 IU/L
  AST: 67 IU/L
  BUN: 17.6 mg/dL
  CRE: 0.2 mg/dL
  Ca: 10.5 mg/dL
  Cl: 106.6 meq/L
  DBIL: 0 mg/dL
  GLC: 199.6 mg/dL
  IP: 6.7 mg/dL
  K: 4.4 meq/L
  LDH: 164.6 IU/L
  Na: 142.8 meq/L
  PL: 148.4 mg/dL
  RALB: 3 g/dL
  TBIL: 0.016 mg/dL
  TC: 78.4 mg/dL
  TG: 119.2 mg/dL
  TP: 5.7 g/dL
  gamma-GTP: 2.4 IU/L
[4]
  TERMINAL_BW: 413.6 g
  APTT: 24.6 s
  Bas: 0%
  Eos: 1.6%
  Fbg: 315.8 mg/dL
  Hb: 14.5 g/dL
  Ht: 43.8%
  Lym: 77.8%
  MCH: 18.7 pg
  MCHC: 33%
  MCV: 56.6 fL
  Mono: 2%
  Neu: 17.8%
  PT: 16 s
  Plat: 101.3 x10_4/uL
  RBC: 775 x10_4/ul
  Ret: 3%
  WBC: 123.2 x10_2/uL
  KIDNEY_L: 1.4 g
  KIDNEY_R: 1.5 g
  KIDNEY_TOTAL: 3 g
  LIVER: 16.8 g
  A/G: 1.1
  ALP: 1231 IU/L
  ALT: 44.4 IU/L
  AST: 68.2 IU/L
  BUN: 20 mg/dL
  CRE: 0.2 mg/dL
  Ca: 10.2 mg/dL
  Cl: 105 meq/L
  DBIL: 0 mg/dL
  GLC: 211.4 mg/dL
  IP: 6.2 mg/dL
  K: 4.1 meq/L
  LDH: 160.4 IU/L
  Na: 141.4 meq/L
  PL: 147.4 mg/dL
  RALB: 3.1 g/dL
  TBIL: 0.008 mg/dL
  TC: 73.6 mg/dL
  TG: 132.6 mg/dL
  TP: 5.8 g/dL
  gamma-GTP: 3.2 IU/L
[5]
  TERMINAL_BW: 246.9 g
  APTT: 21.6 s
  Bas: 0%
  Eos: 0.6%
  Fbg: 325.8 mg/dL
  Hb: 13.1 g/dL
  Ht: 39.6%
  Lym: 77.6%
  MCH: 21.1 pg
  MCHC: 33.2%
  MCV: 63.6 fL
  Mono: 2.8%
  Neu: 18%
  PT: 15.5 s
  Plat: 124.7 x10_4/uL
  RBC: 624.6 x10_4/ul
  Ret: 6.8%
  WBC: 102.4 x10_2/uL
  KIDNEY_L: 1 g
  KIDNEY_R: 1.1 g
  KIDNEY_TOTAL: 2.1 g
  LIVER: 11.6 g
  A/G: 1.2
  ALP: 1776.4 IU/L
  ALT: 44.2 IU/L
  AST: 73 IU/L
  BUN: 17 mg/dL
  CRE: 0.1 mg/dL
  Ca: 10.9 mg/dL
  Cl: 107.6 meq/L
  DBIL: 0 mg/dL
  GLC: 185.4 mg/dL
  IP: 7.5 mg/dL
  K: 4.5 meq/L
  LDH: 184 IU/L
  Na: 142.2 meq/L
  PL: 153.4 mg/dL
  RALB: 3 g/dL
  TBIL: 0.008 mg/dL
  TC: 77.8 mg/dL
  TG: 126 mg/dL
  TP: 5.6 g/dL
  gamma-GTP: 1.4 IU/L
[6]
  TERMINAL_BW: 281.8 g
  APTT: 21.6 s
  Bas: 0%
  Eos: 1%
  Fbg: 317.8 mg/dL
  Hb: 13.1 g/dL
  Ht: 38.8%
  Lym: 80.2%
  MCH: 20.8 pg
  MCHC: 33.7%
  MCV: 61.8 fL
  Mono: 2.2%
  Neu: 15.8%
  PT: 15.4 s
  Plat: 123 x10_4/uL
  RBC: 628 x10_4/ul
  Ret: 6.3%
  WBC: 124.1 x10_2/uL
  KIDNEY_L: 1.2 g
  KIDNEY_R: 1.2 g
  KIDNEY_TOTAL: 2.4 g
  LIVER: 13.2 g
  A/G: 1.2
  ALP: 1841.6 IU/L
  ALT: 40.6 IU/L
  AST: 67.2 IU/L
  BUN: 19.8 mg/dL
  CRE: 0.1 mg/dL
  Ca: 10.8 mg/dL
  Cl: 106 meq/L
  DBIL: 0 mg/dL
  GLC: 189.6 mg/dL
  IP: 6.8 mg/dL
  K: 4.5 meq/L
  LDH: 157 IU/L
  Na: 140.8 meq/L
  PL: 155.6 mg/dL
  RALB: 3 g/dL
  TBIL: 0.002 mg/dL
  TC: 76.4 mg/dL
  TG: 132.6 mg/dL
  TP: 5.5 g/dL
  gamma-GTP: 2.6 IU/L
[7]
  TERMINAL_BW: 316.9 g
  APTT: 23 s
  Bas: 0%
  Eos: 0.6%
  Fbg: 342.6 mg/dL
  Hb: 14.2 g/dL
  Ht: 41.8%
  Lym: 79%
  MCH: 19.7 pg
  MCHC: 34%
  MCV: 57.9 fL
  Mono: 2%
  Neu: 16.6%
  PT: 15.6 s
  Plat: 111.2 x10_4/uL
  RBC: 722.6 x10_4/ul
  Ret: 4.6%
  WBC: 128.3 x10_2/uL
  KIDNEY_L: 1.2 g
  KIDNEY_R: 1.2 g
  KIDNEY_TOTAL: 2.5 g
  LIVER: 14.1 g
  A/G: 1.1
  ALP: 1354 IU/L
  ALT: 40.6 IU/L
  AST: 67.4 IU/L
  BUN: 20.2 mg/dL
  CRE: 0.2 mg/dL
  Ca: 10.2 mg/dL
  Cl: 106.4 meq/L
  DBIL: 0 mg/dL
  GLC: 193.4 mg/dL
  IP: 6.9 mg/dL
  K: 4.2 meq/L
  LDH: 151.6 IU/L
  Na: 143 meq/L
  PL: 139.2 mg/dL
  RALB: 2.9 g/dL
  TBIL: 0.014 mg/dL
  TC: 64.2 mg/dL
  TG: 168 mg/dL
  TP: 5.7 g/dL
  gamma-GTP: 2 IU/L
[8]
  TERMINAL_BW: 422.2 g
  APTT: 25.2 s
  Bas: 0%
  Eos: 1%
  Fbg: 319 mg/dL
  Hb: 14.5 g/dL
  Ht: 43.8%
  Lym: 80%
  MCH: 19.1 pg
  MCHC: 33.1%
  MCV: 57.7 fL
  Mono: 1.8%
  Neu: 15.8%
  PT: 15.8 s
  Plat: 105.3 x10_4/uL
  RBC: 760.4 x10_4/ul
  Ret: 3.1%
  WBC: 151.9 x10_2/uL
  KIDNEY_L: 1.4 g
  KIDNEY_R: 1.5 g
  KIDNEY_TOTAL: 2.9 g
  LIVER: 17.3 g
  A/G: 1.1
  ALP: 1003.2 IU/L
  ALT: 36.4 IU/L
  AST: 62.2 IU/L
  BUN: 20 mg/dL
  CRE: 0.2 mg/dL
  Ca: 10.2 mg/dL
  Cl: 106 meq/L
  DBIL: 0 mg/dL
  GLC: 196 mg/dL
  IP: 6 mg/dL
  K: 4.1 meq/L
  LDH: 141.6 IU/L
  Na: 141.8 meq/L
  PL: 142.4 mg/dL
  RALB: 3.2 g/dL
  TBIL: 0.008 mg/dL
  TC: 68.6 mg/dL
  TG: 152.4 mg/dL
  TP: 6 g/dL
  gamma-GTP: 2.6 IU/L
